Measured values reported in PMC11171933, “Rapid Determination of Kinetic Constants for Slow-Binding Inhibitors and Inactivators of Human Histone Deacetylase 8” (International Journal of Molecular Sciences, 2024).
“Also recorded” adds a separate entry of the source. Read-outs that look alike come from different tables or passages of the source.

Assays:
CYP3A4 [1] = biological target: T1, CYP3A4 (Homo sapiens, UniProt P08684); assay: Inactivation kinetics of CYP3A4 (literature data and reanalysis)
T1 sequence (P08684 2-503): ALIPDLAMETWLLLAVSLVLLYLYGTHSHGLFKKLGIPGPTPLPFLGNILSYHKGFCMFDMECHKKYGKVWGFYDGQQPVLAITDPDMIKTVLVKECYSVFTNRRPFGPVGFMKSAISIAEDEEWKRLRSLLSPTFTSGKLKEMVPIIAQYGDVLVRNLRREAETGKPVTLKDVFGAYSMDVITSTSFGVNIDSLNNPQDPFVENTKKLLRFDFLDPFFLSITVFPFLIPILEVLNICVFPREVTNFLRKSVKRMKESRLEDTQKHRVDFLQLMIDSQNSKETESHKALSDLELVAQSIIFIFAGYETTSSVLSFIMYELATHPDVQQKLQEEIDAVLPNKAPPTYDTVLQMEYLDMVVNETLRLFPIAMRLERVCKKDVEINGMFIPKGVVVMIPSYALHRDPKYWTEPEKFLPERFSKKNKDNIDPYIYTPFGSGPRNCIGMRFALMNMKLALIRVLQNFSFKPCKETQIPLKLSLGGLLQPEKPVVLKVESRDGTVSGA
Experimental: (§1) Firstly, the remaining enzyme activities were extracted from the data sets for all inactivator concentrations and plotted against the respective preincubation times used. Secondly, the resulting decay curves for different inactivator concentrations were fitted to mono-exponential functions, thus yielding observed inactivation rates kobs for all inactivator concentrations.

human HDAC8 = biological target: T2, human HDAC8 (Homo sapiens, UniProt Q9BY41); assay: Time-dependent fluorometric HDAC8 enzyme activity assay (dose-response curves after different pre-incubation times); settings: for Binding / inhibition mechanism classification: from time-dependent dose-response curves and kobs vs [I] plot; for kinact: read-out: kinact (min^−1); for kinact/KI: read-out: kinact/KI (M^−1s^−1)
T2 sequence (Q9BY41 1-377): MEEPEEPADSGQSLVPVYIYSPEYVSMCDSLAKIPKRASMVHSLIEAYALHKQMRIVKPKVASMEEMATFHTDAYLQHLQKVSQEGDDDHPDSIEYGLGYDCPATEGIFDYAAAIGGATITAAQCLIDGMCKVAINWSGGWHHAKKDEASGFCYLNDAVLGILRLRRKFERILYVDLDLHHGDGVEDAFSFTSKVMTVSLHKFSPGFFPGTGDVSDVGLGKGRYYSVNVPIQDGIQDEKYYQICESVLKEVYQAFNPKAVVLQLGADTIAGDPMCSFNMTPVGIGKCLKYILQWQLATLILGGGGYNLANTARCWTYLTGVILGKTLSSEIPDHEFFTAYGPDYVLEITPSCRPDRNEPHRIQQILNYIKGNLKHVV
Experimental: HDAC8 activity was determined using a fluorometric assay, as previously described [44]. […] The enzyme reaction was initiated by adding 20 μM of the substrate Boc-Lys(TFA)-AMC (Bachem, Bubendorf, Switzerland). […] The measurements were carried out using a fluorescence microplate reader (PHERAstar FS, BMG LABTECH, Ortenberg, Germany) with fluorescence excitation at 360 nm and emission at 460 nm. IC50 values were calculated using GraphPad Prism 9 by generating dose–response curves and fitting them to a 4-parameter fit model [50]. The results represent the mean ± SD of three independent experiments.
The binding constant Ki for the 1-step binding mechanism in Equation (5) was calculated as follows:(5) Ki=koff/kon
A plot of kobs versus inhibitor or inactivator concentration ([I]) allows distinguishing between 1-step or 2-step behavior: a straight line indicates 1-step, and a saturation curve indicates a 2-step mechanism. Kinetic parameters were obtained from fitting kobs vs. [I] data to the following functions for the indicated mechanism:
Reversible 1-step binding (see Equation (1)):(8) kobs=kon[I]+koff where kon and koff are association and dissociation rate constants, respectively.
Reversible 2-step binding (see Equation (2)):(9) kobs=k−r+kr/1+IC50/[I] where kr and k−r are forward and reverse isomerization rate constants of the second step.
Irreversible 1-step inactivation (see Equation (3)):(10) kobs=kinact/KI[I] where kinact is the inactivation rate, KI is [I], and kinact is the half-maximum.
Irreversible 2-step inactivation (see Equation (4)):(11) kobs=kinact[I]/KI +[I]

CYP2C8 [2] = biological target: T3, CYP2C8 (Homo sapiens, UniProt P10632); assay: Inactivation kinetics of CYP2C8 (literature data and reanalysis)
T3 sequence (P10632 1-490): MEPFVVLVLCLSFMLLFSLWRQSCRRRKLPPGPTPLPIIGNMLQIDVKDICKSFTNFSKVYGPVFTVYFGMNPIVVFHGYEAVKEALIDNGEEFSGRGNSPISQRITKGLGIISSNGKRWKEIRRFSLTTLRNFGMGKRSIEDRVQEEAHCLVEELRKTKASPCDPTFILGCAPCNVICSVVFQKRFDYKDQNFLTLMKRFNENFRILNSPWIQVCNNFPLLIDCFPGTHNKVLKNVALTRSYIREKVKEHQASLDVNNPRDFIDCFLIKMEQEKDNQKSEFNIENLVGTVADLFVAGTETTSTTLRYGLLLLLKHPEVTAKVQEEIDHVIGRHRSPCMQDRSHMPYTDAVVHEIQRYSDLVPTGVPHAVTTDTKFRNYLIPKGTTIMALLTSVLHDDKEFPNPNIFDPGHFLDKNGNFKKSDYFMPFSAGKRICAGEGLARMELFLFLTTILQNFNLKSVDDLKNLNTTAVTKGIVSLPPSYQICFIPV
Experimental: as §1

CYP3A4 [3] = biological target: T1, CYP3A4; settings: CYP3A4 inactivation ref 38, cited from earlier work
[4] = parameters: method as in PMID 5970483; settings: pH 8 ref 48; cited from earlier work
[5] = parameters: method as in PMID 5970483; settings: pH of 7.0 ref 48; cited from earlier work
CYP2C8 [6] = biological target: T3, CYP2C8; settings: CYP2C8 inactivation ref 36, cited from earlier work
HDAC8 [7] = settings: read-out: IC50 (µM) (Lit.), cited from earlier work
HDAC8 [8] = biological target: HDAC8; parameters: method as in PMID 24882269; settings: binding affinity to HDAC8 ref 41; cited from earlier work
HIV protease = test system: HIV protease; parameters: method as in PMID 17928344; settings: HIV protease ref 18; cited from earlier work

## CC(C)=CCC/C(C)=C/COc1c2ccoc2cc2oc(=O)ccc12 [Bergamottin]
CYP3A4 [1]; human
  Ki: 12 ± 5 µM
  kinact: 0.0065 s⁻¹

## O=c1c2ccccc2[se]n1-c1ccccc1 [Ebselen, reference compound]
Human HDAC8
  IC50: 80 ± 30 nM
  Binding / inhibition mechanism classification: rapidly inactivated HDAC8; also recorded: fast covalent inactivators
  kinact: > 2 min⁻¹

## C#C[C@]1(O)CC[C@H]2[C@@H]3CCc4cc(O)ccc4[C@H]3CC[C@@]21C [Ethynyl-estradiol, reference compound]
CYP3A4 [1]; human
  Ki: 5.4 ± 2.5 µM

## NNC(=O)c1ccncc1 [Isoniazid]
CYP2C8 [2]; human
  Ki: 280 ± 40 µM
  kinact: 0.0006 s⁻¹

## CC/C(=C(\c1ccccc1)c1ccc(OCCNC)cc1)c1ccccc1 [N-desmethy-ltamoxifen]
CYP3A4 [1]; CYP3A4, reanalysis of literature data (refs 37-39) with two-step fit of kobs vs [I]
  kinact (min^−1), Reanalysis: 0.083 ± 0.007 min⁻¹
CYP3A4 [1]; read-out: KI (µM), Reanalysis, CYP3A4, reanalysis of literature data (refs 37-39) with two-step fit of kobs vs [I]
  Ki: 2.5 ± 1 µM
CYP3A4 [3]
  kinact (min^−1), Literature: 0.08 min⁻¹
CYP3A4 [3]; read-out: KI (µM), Literature
  Ki: 2.6 µM

## CCN1C(=O)C=CC1=O [NEM, N-ethylmaleimide, reference compound]
[4]
  second-order rate constant for N-ethylmaleimide reaction with cysteine: 15,300 M^−1s^−1
[5]
  rate constant, times lower than that of cysteine: more than 100 times
Human HDAC8
  IC50: 700 to 42000 nM
  Binding / inhibition mechanism classification: unspecific one-step affinity labeling; also recorded: slow inactivation behavior
  kinact/KI: 133 ± 3 M⁻¹ s⁻¹

## CNCCC=C1c2ccccc2CCc2ccccc21 [Nortriptyine]
CYP2C8 [2]; CYP2C8, reanalysis of literature data (ref 36) with two-step fit of kobs vs [I]
  kinact (min^−1), Reanalysis: 0.044 ± 0.003 min⁻¹
CYP2C8 [2]; read-out: KI (µM), Reanalysis, CYP2C8, reanalysis of literature data (ref 36) with two-step fit of kobs vs [I]
  Ki: 66 ± 12 µM
CYP2C8 [6]
  kinact (min^−1), Literature: 0.036 min⁻¹
CYP2C8 [6]; read-out: KI (µM), Literature
  Ki: 49.9 µM

## COc1ccc(Cn2ccc3ccc(C(=O)NO)cc32)cc1 [PCI-34051, reference compound]
HDAC8 [7]; literature value ref 43
  IC50: […]
Human HDAC8
  Binding / inhibition mechanism classification: fast-reversible inhibitors

## NNCCc1ccccc1 [Phenelzine]
CYP2C8 [2]; human
  Ki: 0.84 ± 0.24 µM
  kinact: 0.0035 s⁻¹

## O=C(CCCCCCC(=O)Nc1ccccc1)NO [SAHA, suberoylanilide hydroxamic acid, reference compound]
Human HDAC8
  Binding / inhibition mechanism classification: fast-reversible inhibitors

## O=C(CCCCCCC(=O)C(F)(F)F)Nc1ccccc1 [SATFMK]
HDAC8 [7]; literature value ref 42
  IC50: 0.021 µM
HDAC8 [8]
  Kd: 5.6 nM

## COC(=O)c1ccc(/C=C(\C#N)C(=O)C(F)(F)F)cc1 [SVE04]
Human HDAC8
  IC50: 4200 ± 1100 nM
  Ki: 1300 nM
  Binding / inhibition mechanism classification: fast reversible HDAC8 inhibitors; also recorded: fast reversible binding

## COc1ccc(CC(C#N)C(=O)O)cc1 (centres unmarked) [SVE27]
Human HDAC8
  IC50: 2600 ± 400 nM
  Ki: 800 nM
  Binding / inhibition mechanism classification: fast reversible HDAC8 inhibitors; also recorded: fast reversible binding

## Cc1cc(C)cc(CSc2nc(Cl)ns2)c1 [TJ-19-24]
Human HDAC8
  IC50: 400 to 4000 nM
  Ki: 5900 ± 800 nM
  Binding / inhibition mechanism classification: slow two-step inactivators or reversible inhibitors, with a very low reverse isomerization rate; also recorded: slow covalent inactivator; also recorded: slow two-step inactivation
  kinact: 1 min⁻¹
  kinact/KI: 2820 M⁻¹ s⁻¹

## Cc1cc(C)cc(CS(=O)(=O)c2nc(Cl)ns2)c1 [TJ-19-28]
Human HDAC8
  IC50: 300 to 3000 nM
  Ki: 12000 ± 3000 nM
  Binding / inhibition mechanism classification: two-step inactivation mechanism; also recorded: irreversible inactivation mechanism
  kinact: 1.8 min⁻¹
  kinact/KI: 2500 M⁻¹ s⁻¹

## CC(C)CN(C[C@@H](O)[C@H](Cc1ccccc1)NC(=O)O[C@H]1CO[C@H]2OCC[C@H]21)S(=O)(=O)c1ccc(N)cc1 [darunavir]
HIV protease
  residence time (RT): 247 h

## CC(C)(C)NC(=O)[C@@H]1CN(Cc2cccnc2)CCN1C[C@@H](O)C[C@@H](Cc1ccccc1)C(=O)N[C@H]1c2ccccc2C[C@H]1O [indinavir]
HIV protease
  residence time (RT): 0.3 h
